The values that follow come from ChEMBL document CHEMBL1201862, “PubChem BioAssay data set” (2004).

Test systems include SNB-19; PC-3; LOX IMVI; ACHN; SK-MEL-2; K562; KM12; HT-29; M14; OVCAR-8; OVCAR-4; UO-31; MCF7; OVCAR-3; CCRF-CEM; RXF 393; SW-620; SF-268; SR; NCI-H460.
What all share (assay): NCI-60 cell line screen, 48 h

Molecules are shown by their SMILES.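 A five-concentration, 48-hour dose response in 96-well plates underlies each endpoint, interpolated linearly between surrounding concentrations. The concentration for 50% growth inhibition is given as GI50.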 The source made the active and inactive calls. No stated cut-off is given here; in the data, active = GI50 up to about 1.1 µM and inactive = higher.

With `Cc1cc(NS(=O)(=O)c2ccc(/N=N/c3c(Nc4ccccc4)nn(-c4ccc(S(=O)(=O)Nc5ccncn5)cc4)c3C)cc2)no1`, the GI50 in the experiment with SNB-19 was > 100 µM (inactive); in the experiment on PC-3, > 100 µM (inactive); in the experiment with LOX IMVI, > 100 µM (inactive); with ACHN, > 100 µM (inactive); in the experiment with SK-MEL-2 it was > 100 µM (inactive); in the experiment with K562, 86.1 µM (inactive). In addition, the GI50 with KM12, with HT-29, with M14, with OVCAR-8, with OVCAR-4 and in the experiment on UO-31 was > 100 µM (inactive) throughout. Further, the GI50 with MCF7, in the experiment with OVCAR-3 and in the experiment on CCRF-CEM was > 100 µM (inactive) throughout.
Consider `Nc1nc(N)c2c(Cl)c(CNc3ccc(Cl)c(Cl)c3)ccc2n1`, for which the GI50 was 0.486 µM (active) in the experiment with SNB-19; < 0.01 µM (active) in the experiment on PC-3; < 0.01 µM (active) in the experiment on LOX IMVI; < 0.01 µM (active) in the experiment with ACHN; 3.11 µM (inactive) in the experiment with SK-MEL-2; < 0.01 µM (active) with K562. The GI50 in the experiment on RXF 393 was 0.337 µM (active); with KM12 it was 0.0238 µM (active); in the experiment with HT-29, < 0.01 µM (active); in the experiment with M14, < 0.01 µM (active); in the experiment on SW-620, < 0.01 µM (active); in the experiment with SF-268, 0.0116 µM (active). Besides, the GI50 in the experiment on OVCAR-8 was < 0.01 µM (active); in the experiment on OVCAR-4 it was 0.871 µM (active); with UO-31, 0.0294 µM (active); in the experiment on OVCAR-3, 0.168 µM (active); in the experiment on CCRF-CEM it was < 0.01 µM (active); in the experiment on SR it was < 0.0371 µM (active). Moreover, the GI50 in the experiment on NCI-H460 is < 0.01 µM (active).
For `COc1cc(OC)cc(-n2c(N)c(-c3nc4ccccc4n3C)c3ccc([N+](=O)[O-])cc3c2=O)c1`, the GI50 was 40.6 µM (inactive) in the experiment with SNB-19; > 100 µM (inactive) in the experiment with PC-3; > 100 µM (inactive) in the experiment with LOX IMVI; 83.4 µM (inactive) with ACHN; > 100 µM (inactive) with SK-MEL-2; > 100 µM (inactive) in the experiment with K562. The GI50 in the experiment on KM12 is 35.6 µM (inactive); with HT-29 it was > 100 µM (inactive); with SW-620, > 100 µM (inactive); with SF-268 it was 55.5 µM (inactive); in the experiment on OVCAR-8 it was 32 µM (inactive); in the experiment with OVCAR-4, 28.2 µM (inactive). In addition, the GI50 in the experiment with UO-31 and with NCI-H460 was > 100 µM (inactive) each time.
`CCNC(=O)NNc1ncnc2c1c(-c1ccc(Cl)cc1)cn2-c1ccc(C)cc1`: the GI50 in the experiment with SNB-19 was 18.2 µM (inactive); in the experiment with PC-3, 17.7 µM (inactive); in the experiment on LOX IMVI it was 17.7 µM (inactive); in the experiment on ACHN, 17.7 µM (inactive); in the experiment with SK-MEL-2 it was 20.4 µM (inactive); in the experiment on K562, 18.6 µM (inactive). Moreover, the GI50 in the experiment on RXF 393 was 18.3 µM (inactive); in the experiment on KM12, 20.1 µM (inactive); in the experiment on HT-29, 18.3 µM (inactive); with M14, 17.7 µM (inactive); in the experiment with SW-620, 21.2 µM (inactive); in the experiment with SF-268, 19 µM (inactive). The GI50 in the experiment with OVCAR-8 was 15 µM (inactive); in the experiment with OVCAR-4, 11.5 µM (inactive); with UO-31, 14.2 µM (inactive); in the experiment on OVCAR-3, 16.7 µM (inactive); in the experiment with CCRF-CEM, 20.2 µM (inactive); in the experiment on SR, 20.2 µM (inactive). Besides, in the experiment with NCI-H460, the GI50 is 22.4 µM (inactive).
Turning to `COc1ccc(/C=C/c2cc(OC)c(OC)c(OC)c2)cc1O[Si](C)(C)C(C)(C)C`, the GI50 was 3.44 µM (inactive) in the experiment with SNB-19; 4.72 µM (inactive) in the experiment on PC-3; 7.87 µM (inactive) with ACHN; 7.8 µM (inactive) in the experiment on SK-MEL-2; 3.09 µM (inactive) in the experiment on RXF 393; 37.9 µM (inactive) in the experiment with HT-29. Besides, the GI50 is 5.97 µM (inactive) with M14; 2.91 µM (inactive) in the experiment with SW-620; 15.8 µM (inactive) with SF-268; 2.74 µM (inactive) in the experiment with OVCAR-8; 19 µM (inactive) with OVCAR-4; 7.31 µM (inactive) with UO-31. In addition, the GI50 in the experiment on MCF7 is 3.6 µM (inactive); in the experiment on NCI-H460, 4.15 µM (inactive).
Consider `Cc1c(O)nc(-n2[nH]c3c(c2=O)CCCC3)[nH]c1=O`, for which the GI50 in the experiment with SNB-19, in the experiment on PC-3, in the experiment on ACHN, with SK-MEL-2, in the experiment with K562 and in the experiment on RXF 393 was > 100 µM (inactive) each time. For the same molecule, the GI50 with KM12, in the experiment with HT-29, with M14, in the experiment with SW-620, in the experiment with SF-268 and with OVCAR-8 was > 100 µM (inactive) throughout. Further, the GI50 in the experiment on OVCAR-4, with UO-31, with CCRF-CEM, in the experiment on SR and in the experiment on NCI-H460 was > 100 µM (inactive) in each case.
Consider `CCOC(=O)C(NC(=O)Nc1ccc(Cl)cc1)(OC)C(F)(F)F` (stereo not given), for which the GI50 in the experiment on SNB-19 was 22.2 µM (inactive); in the experiment with PC-3, 32.3 µM (inactive); with LOX IMVI it was > 100 µM (inactive); with ACHN it was 0.757 µM (active); in the experiment on SK-MEL-2, 0.973 µM (active); in the experiment with K562 it was 0.832 µM (active). For the same molecule, the GI50 was > 100 µM (inactive) with RXF 393; > 100 µM (inactive) in the experiment with HT-29; 8.24 µM (inactive) in the experiment on M14; 64.4 µM (inactive) with SW-620; 27.7 µM (inactive) in the experiment with SF-268; 49.3 µM (inactive) in the experiment with OVCAR-8. The GI50 with UO-31 was 5.75 µM (inactive); in the experiment with SR it was 9.23 µM (inactive).
On to `COc1ccc(/C(Cl)=C(\CNc2ccccn2)c2ccccc2)cc1OC`, for which the GI50 in the experiment on SNB-19, in the experiment on PC-3, in the experiment on LOX IMVI, with ACHN, with SK-MEL-2 and with K562 was > 100 µM (inactive) throughout. Moreover, the GI50 in the experiment on RXF 393, in the experiment on KM12, in the experiment with HT-29, with SW-620, in the experiment on SF-268 and in the experiment on OVCAR-8 was > 100 µM (inactive) in each case. Besides, the GI50 in the experiment on OVCAR-4, in the experiment on UO-31, in the experiment on CCRF-CEM, in the experiment on SR and in the experiment on NCI-H460 was > 100 µM (inactive) each time.
On to `O=C(c1ccccc1)n1cc(/C=C/[N+](=O)[O-])c2ccccc21`, for which the GI50 is 30.7 µM (inactive) in the experiment on SNB-19; 15.2 µM (inactive) in the experiment with LOX IMVI; > 100 µM (inactive) in the experiment with ACHN; 19.9 µM (inactive) in the experiment on SK-MEL-2; 19.7 µM (inactive) in the experiment with K562; 20.5 µM (inactive) in the experiment on RXF 393. Besides, the GI50 in the experiment with KM12 is 18.5 µM (inactive); in the experiment on HT-29, 44.2 µM (inactive); in the experiment on M14, 20.8 µM (inactive); with SW-620, 19.6 µM (inactive); in the experiment with SF-268, 23.1 µM (inactive); in the experiment on OVCAR-8 it was 35.6 µM (inactive). Further, the GI50 was 27 µM (inactive) in the experiment with OVCAR-4; 20.1 µM (inactive) in the experiment on UO-31; 51.8 µM (inactive) in the experiment on OVCAR-3; 13.4 µM (inactive) in the experiment with CCRF-CEM; 19.7 µM (inactive) in the experiment with SR; 21.9 µM (inactive) in the experiment on NCI-H460.
As to `COc1ccc2[nH]c3ccc4cc[n+](CCN5CCC(C6CCN(CC[n+]7ccc8ccc9[nH]c%10ccc(OC)cc%10c9c8c7)CC6)CC5)cc4c3c2c1`, the GI50 is 1.38 µM (inactive) with SNB-19; 31 µM (inactive) in the experiment with PC-3; 0.18 µM (active) in the experiment with ACHN; > 52.7 µM (inactive) in the experiment on SK-MEL-2; 0.228 µM (active) with K562; 0.569 µM (active) with RXF 393. In addition, the GI50 in the experiment on KM12 is 0.818 µM (active); with HT-29, 0.333 µM (active); in the experiment on M14 it was > 50 µM (inactive); with SW-620, 0.316 µM (active); in the experiment on SF-268, 1.97 µM (inactive); in the experiment on OVCAR-8, 0.405 µM (active). Also, the GI50 in the experiment with OVCAR-4 is 7.29 µM (inactive); in the experiment with UO-31, > 100 µM (inactive); in the experiment on OVCAR-3, > 62.1 µM (inactive); in the experiment on CCRF-CEM, 0.274 µM (active); in the experiment with SR, 0.117 µM (active).
Consider `Cc1ccc(S(=O)(=O)N2CCCN(S(=O)(=O)c3ccc(C)cc3)CCN(S(=O)(=O)c3ccc(C)cc3)CCCSCC2)cc1`, for which the GI50 in the experiment with SNB-19, in the experiment on ACHN, in the experiment on SK-MEL-2, with K562, with RXF 393 and in the experiment on HT-29 was > 100 µM (inactive) in each case. The GI50 in the experiment with M14, in the experiment on SW-620, with SF-268, in the experiment on OVCAR-8, in the experiment with OVCAR-4 and with UO-31 was > 100 µM (inactive) in each case. Besides, the GI50 in the experiment with MCF7, in the experiment with OVCAR-3, in the experiment on CCRF-CEM and in the experiment on NCI-H460 was > 100 µM (inactive) in each case.
Consider `Cc1ccccc1NC(=O)Cc1csc2[n+]1C(=O)/C(=C/c1ccc([N+](=O)[O-])cc1)S2`, for which the GI50 with SNB-19 was 26.4 µM (inactive); in the experiment with PC-3 it was 26.8 µM (inactive); with LOX IMVI, 38.5 µM (inactive); in the experiment with ACHN it was 24.2 µM (inactive); with SK-MEL-2, 29.4 µM (inactive); in the experiment with KM12, 23.7 µM (inactive). Further, the GI50 with HT-29 is 36 µM (inactive); in the experiment with M14, 32.2 µM (inactive); with SW-620, 33.6 µM (inactive); with OVCAR-8, 24.8 µM (inactive); in the experiment on OVCAR-4, 12.1 µM (inactive); with UO-31 it was 18.4 µM (inactive). Further, the GI50 was 42.9 µM (inactive) with MCF7, 31.2 µM (inactive) in the experiment with OVCAR-3 and 22.1 µM (inactive) in the experiment with NCI-H460.
